Test results reported in ChEMBL document CHEMBL1201862, “PubChem BioAssay data set” (2004).
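Where inhibition never reached the appropriate level, the endpoint shown equals the highest concentration tested. Otherwise, values were interpolated linearly from a five-concentration, 48-hour dose response in 96-well plates. GI50: concentration for 50% inhibition of growth.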 The source made the active and inactive calls. Rule as the data show it: active = GI50 up to about 1.1 µM and inactive = higher.

Experiments:
Experiment in all cases: NCI-60 cell line screen, 48 h
ACHN = tested on: ACHN
DLD-1 = tested on: DLD-1
DMS-114 = tested on: DMS-114
M14 = tested on: M14
M19-MEL = tested on: M19-MEL
SR = tested on: SR
TK-10 = tested on: TK-10
UACC-62 = tested on: UACC-62
XF498 = tested on: XF498
786-0 = tested on: 786-0
DMS-273 = tested on: DMS-273
HOP-92 = tested on: HOP-92
KM-20L2 = tested on: KM-20L2
NCI-H226 = tested on: NCI-H226
DU-145 = tested on: DU-145
Hs-578T = tested on: Hs-578T
MCF7 = tested on: MCF7
MDA-MB-231 = tested on: MDA-MB-231
NCI/ADR-RES = tested on: NCI/ADR-RES
T47D = tested on: T47D

Measured: GI50

Cc1cccc(NC(N)=S)c1
inactive: ACHN > 100 µM | DLD-1 > 100 µM | DMS-114 > 100 µM | M14 > 100 µM | M19-MEL > 100 µM | SR > 100 µM | TK-10 > 100 µM | UACC-62 > 100 µM | XF498 > 100 µM

BrC(/C=N/Nc1nnc(-c2ccccc2)c(-c2ccccc2)n1)C(Br)c1ccccc1 (stereo not drawn)
inactive: 786-0 32 µM | ACHN 31 µM | DLD-1 23.8 µM | DMS-114 23.7 µM | DMS-273 30.5 µM | HOP-92 20.3 µM | KM-20L2 39.8 µM | M14 21.6 µM | M19-MEL 36.1 µM | NCI-H226 20.4 µM | TK-10 35.8 µM | UACC-62 18.6 µM | XF498 25.3 µM

CC[N+]1(C)CCC(O)(c2ccccc2)C(C(=O)c2ccccc2)C1 (stereo not drawn)
inactive: 786-0 5.89 µM | ACHN 10.1 µM | DLD-1 7.93 µM | DMS-114 20.2 µM | DMS-273 21.4 µM | DU-145 22.1 µM | HOP-92 8.3 µM | Hs-578T 24 µM | KM-20L2 19.5 µM | M14 9.71 µM | M19-MEL 18.4 µM | MCF7 2.73 µM | MDA-MB-231 17.2 µM | NCI-H226 18.6 µM | NCI/ADR-RES 29.6 µM | SR 5.43 µM | T47D 16.9 µM | TK-10 15.7 µM | UACC-62 19 µM

Cc1cc(O)nc(NN2C(Cl)C(=O)C2c2ccco2)n1 (stereo not drawn)
inactive: ACHN 28.2 µM | DMS-114 34.4 µM | DMS-273 33.7 µM | HOP-92 25.1 µM | KM-20L2 39.4 µM | M14 33.8 µM | M19-MEL 39.5 µM | SR 28.4 µM | TK-10 61.2 µM | UACC-62 26.5 µM

O=C(O)C(Br)Cc1ccc2c(c1)OCO2 (stereo not drawn)
inactive: ACHN > 100 µM | DLD-1 > 100 µM | DMS-114 > 100 µM | HOP-92 > 100 µM | KM-20L2 > 100 µM | M14 > 100 µM | M19-MEL 69.2 µM | SR > 100 µM | UACC-62 62.1 µM | XF498 24 µM

COC(=O)C1=C(C)N2CCSC2(C)C(C(=O)OC)C1c1cccc(Cl)c1 (stereo not drawn)
inactive: ACHN 24.8 µM | DMS-114 19.8 µM | HOP-92 13.4 µM | KM-20L2 17.5 µM | M14 30.1 µM | M19-MEL 16 µM | NCI-H226 19.2 µM | SR 15.5 µM | TK-10 41.9 µM | UACC-62 12.8 µM

Oc1cc2cc(O)nc(O)c2c(O)n1
inactive: DLD-1 > 100 µM | DMS-114 > 100 µM | DMS-273 > 100 µM | HOP-92 > 100 µM | KM-20L2 > 100 µM | M14 > 100 µM | M19-MEL > 100 µM | NCI-H226 > 100 µM | SR > 100 µM | TK-10 > 100 µM | UACC-62 > 100 µM | XF498 > 100 µM

COc1cc(CNc2nc3c(NC(C)=O)cc(C(F)(F)F)cc3nc2-c2ccccc2)cc(OC)c1OC
inactive: ACHN > 100 µM | DLD-1 > 100 µM | DMS-114 > 100 µM | DMS-273 > 100 µM | HOP-92 17.8 µM | KM-20L2 > 100 µM | M19-MEL > 100 µM | NCI-H226 > 100 µM | SR > 100 µM | TK-10 > 100 µM | UACC-62 39.7 µM | XF498 26.5 µM

COc1c2c(c3ccccc3c1O)C1C=CC2C1 (stereo not drawn)
inactive: ACHN 14.4 µM | DLD-1 13.3 µM | DMS-114 4.95 µM | DMS-273 15.7 µM | KM-20L2 22.3 µM | M14 14.7 µM | M19-MEL 2.32 µM | NCI-H226 > 10 µM | SR 21 µM | TK-10 22.3 µM | UACC-62 15.4 µM | XF498 14.7 µM

CC(=O)Nc1ccc(C(=O)N2N=C(C)/C(=C/c3ccc(O)cc3)C2=O)cc1
inactive: 786-0 > 100 µM | ACHN > 100 µM | DLD-1 > 100 µM | DMS-114 > 100 µM | DMS-273 > 100 µM | M19-MEL > 100 µM | NCI-H226 > 100 µM | SR > 100 µM | TK-10 > 100 µM | XF498 > 100 µM

CC1CC2C3CCC4=CC(=O)C=CC4(C)C3(F)C(O)CC2(C)C1(O)C(=O)COP(=O)(O)O (stereo not drawn)
inactive: ACHN > 100 µM | DLD-1 > 100 µM | DMS-273 > 100 µM | DU-145 > 100 µM | HOP-92 > 100 µM | Hs-578T > 100 µM | KM-20L2 > 100 µM | M14 > 100 µM | M19-MEL > 100 µM | MCF7 > 100 µM | MDA-MB-231 > 100 µM | NCI-H226 > 100 µM | SR 46.6 µM | T47D > 100 µM | TK-10 > 100 µM | UACC-62 > 100 µM | XF498 > 100 µM

O=C(Nc1c(Cl)cc([N+](=O)[O-])cc1Cl)/C(=N\Nc1cccc(Cl)c1)c1c(O)c2ccccc2oc1=O
inactive: 786-0 > 100 µM | ACHN 49.2 µM | DLD-1 42.9 µM | DMS-114 52.7 µM | KM-20L2 > 100 µM | M19-MEL > 100 µM | SR 78.7 µM | TK-10 > 100 µM | UACC-62 89.5 µM
